Assay results as given in US9095587B2, “Methods and compositions for improved nerve conduction velocity” (Spinifex Pharmaceuticals Pty Ltd, priority 2010, dated 2015).
“And” between values parts separate entries of the source, which are not always exact repeats. Equal values may be shown once. Where a name gives a salt, the structure may show the parent alone.

Experiments:
diabetic rats [1] = assay: Sciatic motor nerve conduction velocity in STZ-diabetic rats; type: in vivo, rat; settings: for Motor NCV, Mean: group mean of 10 diabetic rats; for Motor NCV, Mean / Motor NCV: last 2 weeks of 8 weeks diabetes; for Motor NCV: individual diabetic rats
Protocol: (§1) Methods: Diabetes was induced in mature (19 week old) male Sprague-Dawley by a single STZ injection (40-45 mg/kg i.p.). The diabetic state was monitored weekly using commercially available test strips for blood (tail vein) and urine glucose levels. Body weight was also monitored daily. The criteria for the diabetic state were: blood glucose>19.9 mM, glycosuria, and no evidence of body weight gain.
(§2) In final experiments, rats were anaesthetized with thiobutabarbital (50-100 mg kg-1 i.p.) The trachea was cannulated for artificial respiration. The level of anaesthesia was monitored by observing any reaction of blood pressure to manipulation, supplementary thiobutabarbital anaesthetic being given as necessary. As described in detail by Cameron et al., (Q. J. Expt Physiol, 74; 917-926, 1989 and Diabetes, 40:532-539, 1991), the sciatic nerve was exposed between the sciatic notch and knee. Bipolar stimulating electrodes were placed close to the nerve at the notch and knee. A concentric bipolar electrode was inserted into tibialis anterior muscle to monitor evoked electromyographic (EMG) activity. Potentials evoked from each stimulating site were averaged 8 times. Motor nerve conduction velocity (NCV) was calculated by dividing the distance between stimulating electrodes by the average latency difference between the onsets of EMG potentials evoked from the 2 sites. Nerve temperature was monitored using a thermocouple probe, and maintained in the range 36-38° C. by radiant heat. Body temperature was also maintained around 37° C. using a heated blanket.
as §1, with “also be” for “also”
as §2, with “necessary. The” for “necessary. As described in detail by Cameron et al., (Q. J. Expt Physiol, 74; 917-926, 1989 and Diabetes, 40:532-539, 1991), the”, “averaged […]” for “averaged 8”, “Motor NCV” for “Motor nerve conduction velocity (NCV)”, “blanket. Sensory NCV was measured for sensory saphenous nerve between groin and mid-calf in a similar fashion, except that direct nerve evoked potentials were recorded at the ankle using a unipolar platinum hook electrode. Reference values for comparison of the NCV data were obtained from nondiabetic control and 8 week diabetic control rats.” for “blanket.”
as §1, with “Diabetes” for “Methods: Diabetes”
In final experiments, rats were anaesthetized with thiobutabarbital (50-100 mg kg-1 i.p.) The trachea was cannulated for artificial respiration. […]

[2] = target: AT2 (h) human recombinant (Hela cells) (Homo sapiens, UniProt P50052); settings: competition curve, Hill equation curve fitting
Protocol: (§4) The specific ligand binding to the receptors is defined as the difference between the total binding and the nonspecific binding determined in the presence of an excess of unlabelled ligand. […] The IC50 values (concentration causing a half-maximal inhibition of control specific binding) and Hill coefficients (nH) were determined by non-linear regression analysis of the competition curves using Hill equation curve fitting. The inhibition constants (Ki) were calculated from the Cheng Prusoff equation (Ki=IC50/(1+(L/KD)), where L=concentration of radioligand in the assay, and KD=affinity of the radioligand for the receptor).

[3] = target: T1, AT1 (h) human recombinant (CHO cells) (Homo sapiens, UniProt P30556); assay: AT1 (h) receptor binding assay; settings: [125I][Sar1, Ile8]-AT II 0.05 nM, 60 min./37° C.; highest tested concentration
T1 construct: expressed in transfected cells; host or cells: CHO cells
T1 sequence (P30556 1-359): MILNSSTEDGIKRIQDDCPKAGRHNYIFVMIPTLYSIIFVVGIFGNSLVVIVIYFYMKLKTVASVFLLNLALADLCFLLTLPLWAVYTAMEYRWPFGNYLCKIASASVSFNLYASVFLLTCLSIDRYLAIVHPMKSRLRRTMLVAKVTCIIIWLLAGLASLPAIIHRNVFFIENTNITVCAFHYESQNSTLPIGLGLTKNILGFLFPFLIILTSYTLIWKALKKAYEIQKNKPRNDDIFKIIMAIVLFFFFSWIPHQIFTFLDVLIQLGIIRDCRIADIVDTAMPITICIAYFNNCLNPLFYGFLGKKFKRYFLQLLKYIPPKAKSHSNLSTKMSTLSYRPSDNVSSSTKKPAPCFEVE
Protocol: as §4

diabetic rats [4] = assay: Thermal hyperalgesia, Hargreaves plantar test, diabetic rats; type: in vivo, rat
Protocol: as §1, with “Diabetes” for “Methods: Diabetes”
(§3) Tactile allodynia thresholds for the foot were measured by an electronic von Frey hair apparatus. Latencies for foot withdrawal reflexes to noxious thermal stimulation were estimated by the Hargreaves plantar test (Hargreaves K, Dubner R, Brown F, Flores C, Joris J. A new and sensitive method for measuring thermal nociception in cutaneous hypeialgesia. Pain 1988; 32: 77-88). All tests were carried out using commercially available equipment (Ugo-Basile, Comerio, Italy). Measurements were made in a constant temperature room at the same time each day, and rats were given a 3-day period for familiarization with handling, the environment, equipment, and experimental procedure.
In a similar way to the assessment of tactile allodynia, thermal sensitivity was also measured on 2 separate occasions, before and after treatment. […] After 30 min acclimatization, a constant power infrared stimulus was focused onto the sole of the foot and the latency for reflex foot withdrawal recorded via a photoelectric monitor. […]

diabetic rats [5] = assay: Tactile allodynia, electronic von Frey hair apparatus, diabetic rats; type: in vivo, rat
Protocol: as §1, with “Diabetes” for “Methods: Diabetes”
as §3, with “Measurements were made in a constant temperature room at the same time each day, and rats were given a 3-day period for familiarization with handling, the environment, equipment, and experimental procedure.” left out
Tactile allodynia was estimated on two separate occasions; once on a day before treatment was initiated, and then on the day immediately following the last day of the treatment period. […] Thus, stimulus intensity tracked the threshold, and a run of 6 near-threshold responses was used to estimate the 50% threshold value using lookup tables (Chaplan S R, Bach F W, Pogrel J W, Chung J M, Yaksh T L. Quantitative assessment of tactile allodynia in the rat paw. J Neurosci Meth 1994; 53: 55-63). […]

[6] = Body weight, blood glucose and general condition of treated diabetic rats; type: in vivo, rat; settings: for End weight, Mean: group mean of 10 diabetic rats; for End weight, Mean / End weight: last 2 weeks of 8 weeks diabetes; for End weight: individual diabetic rats
Protocol: as §1
as §1, with “also be” for “also”

diabetic rats [7] = assay: Saphenous sensory nerve conduction velocity in STZ-diabetic rats; type: in vivo, rat; settings: for Sensory NCV, Mean: group mean of 10 diabetic rats; for Sensory NCV, Mean / Sensory NCV: last 2 weeks of 8 weeks diabetes; for Sensory NCV: individual diabetic rats
Protocol: as §1
Sensory NCV was measured for sensory saphenous nerve between groin and mid-calf in a similar fashion, except that direct nerve evoked potentials were recorded at the ankle using a unipolar platinum hook electrode.
as §1, with “also be” for “also”
as §2, with “necessary. The” for “necessary. As described in detail by Cameron et al., (Q. J. Expt Physiol, 74; 917-926, 1989 and Diabetes, 40:532-539, 1991), the”, “averaged […]” for “averaged 8”, “Motor NCV” for “Motor nerve conduction velocity (NCV)”, “blanket. Sensory NCV was measured for sensory saphenous nerve between groin and mid-calf in a similar fashion, except that direct nerve evoked potentials were recorded at the ankle using a unipolar platinum hook electrode. Reference values for comparison of the NCV data were obtained from nondiabetic control and 8 week diabetic control rats.” for “blanket.”
as §1, with “Diabetes” for “Methods: Diabetes”
as §2, with “The” for “As described in detail by Cameron et al., (Q. J. Expt Physiol, 74; 917-926, 1989 and Diabetes, 40:532-539, 1991), the”, “NCV” for “nerve conduction velocity (NCV)”, “blanket. Sensory NCV was measured for sensory saphenous nerve between groin and mid-calf in a similar fashion, except that direct nerve evoked potentials were recorded at the ankle using a unipolar platinum hook electrode. […]” for “blanket.”

[8] = 1.048 mg/kg daily by gavage for 2 weeks
[9] = 1.048 mg/kg daily by oral gavage
[10] = 1.048 mg/kg daily by oral gavage, 28 days
[11] = 0.01048 mg/kg daily by gavage, 0.01048 mg/kg
[12] = 0.0349 mg/kg daily by gavage, 0.0349 mg/kg
[13] = 0.1048 mg/kg daily by gavage, 0.1048 mg/kg
[14] = 1.048 mg/kg daily by gavage, 1.048 mg/kg
[15] = 1.048 mg/kg by oral gavage, 1 day, before vs after drug

Chain of AT2 (h) human recombinant (Hela cells) (P50052 whole entry): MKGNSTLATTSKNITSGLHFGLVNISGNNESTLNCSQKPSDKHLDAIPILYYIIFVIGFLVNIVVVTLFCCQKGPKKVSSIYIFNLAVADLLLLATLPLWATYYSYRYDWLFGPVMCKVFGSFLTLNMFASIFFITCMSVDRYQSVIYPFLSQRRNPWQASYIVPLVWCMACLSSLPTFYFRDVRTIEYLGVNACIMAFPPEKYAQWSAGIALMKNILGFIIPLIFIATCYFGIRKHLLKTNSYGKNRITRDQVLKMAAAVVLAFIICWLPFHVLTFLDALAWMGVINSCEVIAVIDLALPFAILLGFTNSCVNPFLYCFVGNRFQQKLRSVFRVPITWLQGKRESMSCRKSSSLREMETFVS

SMILES: COc1ccc2c(c1OCc1ccccc1)C[C@@H](C(=O)O)N(C(=O)C(c1ccccc1)c1ccccc1)C2 [Compound 1, S-2-(diphenylacetyl)-5-benzyloxy-6-methoxy-1,2,3,4-tetrahydroisoquinoline-3-carboxylic acid]
- sciatic motor NCV compared with nondiabetic control group (one way ANOVA, Bonferroni test) (diabetic rats [1]; [8]): not significantly different
- reversal of the diabetic deficit, sciatic motor NCV (diabetic rats [1]; 1.048 mg/kg daily by gavage for 2 weeks, vs nondiabetic and diabetic reference groups): 92.6±5.4%
- nH (Hill coefficient) [2]: 1.3
- Flags (IC50 determination) [3]: N.C. (Not calculable. IC50 value is not calculable because of less than 25% inhibition at the highest tested concentration.)

SMILES: COc1ccc2c(c1OCc1ccccc1)C[C@@H](C(=O)O)N(C(=O)C(c1ccccc1)c1ccccc1)C2 [Compound 1 sodium salt, S-2-(diphenylacetyl)-5-benzyloxy-6-methoxy-1,2,3,4-tetrahydroisoquinoline-3-carboxylic acid]
- treatment duration after which motor NCV was statistically within the nondiabetic range (diabetic rats [1]; [9]): 7 days
- motor NCV, 28-day treatment group versus 14-day data (diabetic rats [1]; [10]): entirely comparable with the previously obtained 14-day data
- ED50 (diabetic rats [1]; Rattus norvegicus, 336 h, oral, daily for 2 weeks, best fit sigmoid curve, read-out: ED50, correction of sciatic motor NCV deficit): 0.044 mg/kg
- Motor NCV, Mean (diabetic rats [1]; 0.01048 mg/kg daily by gavage): 53.25 m/s
- Motor NCV, Mean (diabetic rats [1]; 0.0349 mg/kg daily by gavage): 56.68 m/s
- Motor NCV, Mean (diabetic rats [1]; 0.1048 mg/kg daily by gavage): 60.51 m/s
- Motor NCV, Mean (diabetic rats [1]; 1.048 mg/kg daily by gavage): 63.72 m/s
- Motor NCV (diabetic rats [1]; [11]): 54.92 m/s and 55.17 m/s and 54.10 m/s and 50.78 m/s and 54.03 m/s and 51.60 m/s and 51.96 m/s and 56.90 m/s and 50.70 m/s and 52.38 m/s
- Motor NCV (diabetic rats [1]; [12]): 56.15 m/s and 57.38 m/s and 56.90 m/s and 57.89 m/s and 59.32 m/s and 56.67 m/s and 53.68 m/s and 58.18 m/s and 54.55 m/s and 56.06 m/s
- Motor NCV (diabetic rats [1]; [13]): 59.13 m/s and 61.48 m/s and 60.00 m/s (2×) and 58.62 m/s and 63.63 m/s and 64.15 m/s and 59.02 m/s and 60.78 m/s and 58.33 m/s
- Motor NCV (diabetic rats [1]; [14]): 62.87 m/s and 62.30 m/s and 62.84 m/s and 62.50 m/s and 63.90 m/s and 62.69 m/s and 64.95 m/s and 61.75 m/s and 69.57 m/s and 63.81 m/s
- effect on thermal hyperalgesia of only 1 day of treatment (paired Student's t) (diabetic rats [4]; [15]): significant, albeit partial
- treatment duration to full correction of thermal hyperalgesia (diabetic rats [4]; [9]): 3 days
- effect on tactile allodynia of only 1 day of treatment (paired Student's t) (diabetic rats [5]; [15]): significant, albeit partial
- treatment duration to full correction of tactile allodynia (diabetic rats [5]; [9]): 3 days
- condition of animals at the end of the experimental period [6, 8]: in good condition and behaviourally alert
- condition of animals at the end of the experimental period ([6]; 0.1048, 0.0349 or 0.01048 mg/kg daily by gavage for 2 weeks): in good condition and behaviourally alert
- End weight, Mean ([6]; 0.01048 mg/kg daily by gavage): 372 g
- End weight, Mean ([6]; 0.0349 mg/kg daily by gavage): 357 g
- End weight, Mean ([6]; 0.1048 mg/kg daily by gavage): 369 g
- End weight, Mean ([6]; 1.048 mg/kg daily by gavage): 390 g
- End weight [6, 11]: 374 g and 436 g and 346 g and 438 g and 349 g and 329 g and 364 g and 385 g and 386 g and 312 g
- End weight [6, 12]: 369 g and 427 g and 400 g and 396 g and 332 g and 307 g and 277 g and 327 g and 368 g (2×)
- End weight [6, 13]: 398 g and 363 g and 298 g and 315 g and 357 g and 346 g and 392 g and 405 g and 374 g and 440 g
- End weight [6, 14]: 429 g and 380 g and 389 g and 393 g and 390 g and 353 g and 366 g and 418 g and 360 g and 425 g
- diabetic deficit corrected, saphenous sensory NCV (diabetic rats [7]; 1.048 mg/kg daily by gavage for 2 weeks, p<0.001, vs reference groups): 99.1±5.0%
- treatment duration after which sensory NCV was statistically within the nondiabetic range (diabetic rats [7]; [9]): 3 days
- sensory NCV, 28-day treatment group versus 14-day data (diabetic rats [7]; [10]): entirely comparable with the previously obtained 14-day data
- ED50 (diabetic rats [7]; Rattus norvegicus, 336 h, oral, daily for 2 weeks, best fit sigmoid curve, read-out: ED50, correction of saphenous sensory NCV deficit): 0.02 mg/kg
- Sensory NCV, Mean (diabetic rats [7]; 0.01048 mg/kg daily by gavage): 53.93 m/s
- Sensory NCV, Mean (diabetic rats [7]; 0.0349 mg/kg daily by gavage): 57.25 m/s
- Sensory NCV, Mean (diabetic rats [7]; 0.1048 mg/kg daily by gavage): 60.73 m/s
- Sensory NCV, Mean (diabetic rats [7]; 1.048 mg/kg daily by gavage): 61.10 m/s
- Sensory NCV (diabetic rats [7]; [11]): 55.47 m/s and 56.07 m/s and 51.59 m/s and 54.39 m/s and 55.30 m/s and 51.82 m/s and 51.85 m/s and 55.81 m/s and 53.85 m/s and 53.19 m/s
- Sensory NCV (diabetic rats [7]; [12]): 57.43 m/s and 57.94 m/s and 55.60 m/s and 59.95 m/s and 56.00 m/s and 57.50 m/s and 55.93 m/s and 57.73 m/s and 57.72 m/s and 56.72 m/s
- Sensory NCV (diabetic rats [7]; [13]): 61.11 m/s and 62.96 m/s and 61.22 m/s and 56.67 m/s and 63.16 m/s and 62.50 m/s (2×) and 63.04 m/s and 58.33 m/s and 55.83 m/s
- Sensory NCV (diabetic rats [7]; [14]): 62.50 m/s (4×) and 60.63 m/s and 60.41 m/s and 60.71 m/s and 57.57 m/s and 60.98 m/s and 60.74 m/s
